In the case of `*CCOCCOCCOC(=O)C1CCC(C(=O)O*)CC1` (repeat unit), the glass transition temperature was -25.00 °C.
Consider `*CCOCCOCCOCCOC(=O)c1ccc(-c2ccc(C(=O)O*)cc2)cc1` (repeat unit), for which the glass transition temperature was determined as 4.00 °C.
In turn, `*CCOc1ccc(S(=O)(=O)c2ccc(OCCOP(=O)(O*)Oc3ccc(Br)cc3)cc2)cc1` (repeat unit) yielded a glass transition temperature of 59.00 °C.
With `*CCOc1ccc(S(=O)(=O)c2ccc(OCCOP(=O)(O*)Oc3ccc([N+](=O)[O-])cc3)cc2)cc1` (repeat unit), the glass transition temperature was found to be 56.00 °C.
As for `*OC(=O)OCCOCCOCCOCCOC(=O)OC1COC2C(*)COC12` (repeat unit), the glass transition temperature came out at 9.50 °C.
`*ON(C(F)(F)F)C(F)(F)C(*)(F)SC(F)(F)F` (repeat unit) had a glass transition temperature of -48.00 °C.
In the case of `*O[Si](*)(C)CC` (repeat unit), the glass transition temperature was -133.00 °C.
To `*O[Si](*)(C)CCC` (repeat unit) belongs -120.00 °C.
Under `*O[Si](*)(C)CCC(F)(F)F` (repeat unit) stands -69.00 °C; under `*O[Si](*)(C)CCCC` (repeat unit), -115.00 °C; under `*O[Si](*)(C)CCCC(=O)OC` (repeat unit), -72.00 °C.
Under `*O[Si](*)(C)CCCCC1COC(=O)O1` (repeat unit) stands -23.4 °C.
`*O[Si](*)(C)CCCCCCCCCCC(=O)Oc1ccc(-c2ccc(OC(=O)c3ccc(OCC(C)CC)cc3)cc2)cc1` (repeat unit): the glass transition temperature was determined as 29.20 °C.
Under `*O[Si](*)(C)CCCCCCCCCCC(=O)Oc1ccc(C(=O)OCCOc2ccc(C(=O)OC3CCC4(C)C(=CCC5C4CCC4(C)C(C(C)CCCC(C)C)CCC54)C3)cc2)cc1` (repeat unit) stands 25.00 °C; under `*O[Si](*)(C)CCCCCCCCCCC(=O)Oc1ccc(C(=O)Oc2ccc(-c3ccc(OC(=O)c4ccc(OCC(C)CC)cc4)cc3)cc2)cc1` (repeat unit), 74.30 °C.
To `*O[Si](*)(C)CCCCCCCCCCC(F)(F)C(F)(F)C(F)(F)C(F)(F)C(F)(F)C(F)(F)C(F)(F)C(F)(F)F` (repeat unit) belongs -78.00 °C.
Take `*O[Si](*)(C)CCCCCCCCCCCOC(=O)c1cc(OC(=O)c2ccc(OCCOCCOCCOCCOCCOCCOCCOCCOC)cc2)ccc1OC(=O)c1ccc(OCCOCCOCCOCCOCCOCCOCCOCCOC)cc1` (repeat unit): the glass transition temperature is -56.00 °C.
Take `*O[Si](*)(C)CCCCCCCCCCCOc1ccc(C(=O)OC/C=C(\C)CCC=C(C)C)cc1` (repeat unit): the glass transition temperature stood at 25.00 °C.
The compound `*O[Si](*)(C)CCCCCCOc1ccc(C(=O)Oc2ccc(C#N)cc2)cc1` (repeat unit) showed a glass transition temperature of 8.00 °C.
To `*O[Si](*)(C)CCCCCCOc1ccc(C(=O)Oc2ccc(C(=O)Oc3ccc(C=C(C(=O)OCCCCCCCCC)C(=O)OCCCCCCCCC)cc3)cc2)cc1` (repeat unit) belongs -5.00 °C.
Under `*O[Si](*)(C)CCCCCCOc1ccc(C(=O)Oc2ccc(OCCCCCC)cc2)cc1` (repeat unit) stands 12.00 °C; under `*O[Si](*)(C)CCCCOc1ccc(C(=O)Oc2ccc(C#N)cc2)cc1` (repeat unit), 16.00 °C.
To `*O[Si](*)(C)CCCOCC1COC(=O)O1` (repeat unit) belongs -25.90 °C; to `*O[Si](*)(C)CCCOc1ccc(-c2ccc(C#N)cc2)cc1` (repeat unit), 38.00 °C.
The compound `*O[Si](C)(C)O[Si](*)(C)c1c(F)c(F)c(F)c(F)c1F` (repeat unit) gave a glass transition temperature of -65.00 °C.
`*O[Si](C)(C)O[Si](C)(C)O[Si](*)(c1c(F)c(F)c(F)c(F)c1F)c1c(F)c(F)c(F)c(F)c1F` (repeat unit) displayed a glass transition temperature of -42.00 °C.
`*O[Si](C)(C)O[Si](C)(C)O[Si](C)(C)O[Si](C)(C)O[Si](C)(C)c1ccc([Si](*)(C)C)cc1` (repeat unit) came in with a glass transition temperature of -80.00 °C.
To `*O[Si](C)(C)O[Si](C)(C)c1c(F)c(F)c(F)c([Si](*)(C)C)c1F` (repeat unit) belongs -61.00 °C.
For the compound `*O[Si](C)(C)O[Si](C)(C)c1ccc([Si](*)(C)C)cc1` (repeat unit), the glass transition temperature was -62.50 °C.
To `*O[Si](C)(C)c1c(F)c(F)c(F)c([Si](*)(C)C)c1F` (repeat unit) belongs -28.50 °C; to `*O[Si](C)(C)c1cc(OCCOCc2ccccc2)c([Si](*)(C)C)cc1OCCOCc1ccccc1` (repeat unit), 76.00 °C.
To `*O[Si](C)(C)c1ccc(-c2ccc([Si](*)(C)C)cc2)cc1` (repeat unit) belongs 67.00 °C.
To `*O[Si](C)(C)c1ccc([Si](*)(C)C)c2ccccc12` (repeat unit) belongs 60.00 °C; to `*Oc1ccc(C(=O)OCCOCCOCCOC(=O)c2ccc(OC(=O)c3ccc(C(*)=O)cc3)cc2)cc1` (repeat unit), 30.00 °C.
`*Oc1ccc(C(=O)c2ccc(Oc3ccc(C(=O)c4c(C(=O)c5ccc(*)cc5)c(-c5ccc(F)cc5)c(-c5ccc(F)cc5)c(-c5ccc(F)cc5)c4-c4ccc(F)cc4)cc3)cc2)cc1` (repeat unit) gave a glass transition temperature of 260.00 °C.
For the compound `*Oc1ccc(C(=O)c2ccc(Oc3ccc(C(=O)c4ccc(C(=O)c5ccc(*)cc5)cc4)cc3)cc2)cc1` (repeat unit), the glass transition temperature was found to be 169.00 °C.
`*Oc1ccc(C(C)(C)c2ccc(Oc3ccc(C(=O)c4c(C)ccc5c(C(=O)c6ccc(*)cc6)c(C)ccc45)cc3)cc2)cc1` (repeat unit) yielded a glass transition temperature of 222.00 °C.
For `*Oc1ccc(C(c2ccc(Oc3ccc(C(=O)C(=O)c4ccc(*)cc4)cc3)cc2)(C(F)(F)F)C(F)(F)F)cc1` (repeat unit), the glass transition temperature came to 162.00 °C.
Turning to `*c1ccc(Cc2ccc(N3C(=O)c4ccc([Si](C)(C)O[Si](C)(C)O[Si](C)(C)c5ccc6c(c5)C(=O)N(*)C6=O)cc4C3=O)cc2)cc1` (repeat unit), the glass transition temperature was found to be 220.00 °C.
`*c1ccc(Cc2ccc(N3C(=O)c4ccc([Si](C)(C)O[Si](C)(C)c5ccc6c(c5)C(=O)N(*)C6=O)cc4C3=O)cc2)cc1` (repeat unit): the glass transition temperature amounted to 232.00 °C.
To `*c1ccc(OCCOc2ccc(/C=C/c3ccc([N+](=O)[O-])cc3)c(OCCOc3ccc(-c4nc5ccc(Oc6ccc7nc(*)c(-c8ccccc8)nc7c6)cc5nc4-c4ccccc4)cc3)c2)cc1` (repeat unit) belongs 187.00 °C; to `*c1ccc(Oc2ccc(N3C(=O)c4ccc([Si](C)(C)O[Si](C)(C)c5ccc6c(c5)C(=O)N(c5ccc(Oc7ccc(-c8nnc(*)o8)cc7)cc5)C6=O)cc4C3=O)cc2)cc1` (repeat unit), 190.50 °C; to `*c1cccc(Cc2cccc(N3C(=O)c4ccc([Si](C)(C)O[Si](C)(C)O[Si](C)(C)c5ccc6c(c5)C(=O)N(*)C6=O)cc4C3=O)c2)c1` (repeat unit), 208.00 °C.

The values above are taken from the PolyMetriX glass transition set.
